Measurements published in patent publication US20090030207A1, “Polymorphs of Dolasetron base and process for preparation thereof” (priority 2007, published 2009).

Experiments:
[1] = Hygroscopicity: water content after 1 week storage at defined relative humidity; assay type: physicochemical; conditions: for WATER CONTENT: 1 week, 25 ± 2° C.; for INITIAL water content: before storage
Excerpt: Hygroscopicity Table and Stability Measurements of Form G and J

[2] = assay type: physicochemical; conditions: for CRYSTAL FORM: 100% relative humidity, 1 week, 25 ± 2° C.
Excerpt: ARL X-ray powder diffractometer model X'TRA-030, Peltier detector, round standard aluminum sample holder with round zero background quartz plate was used. Scanning parameters: Range: 2-40 deg. 2θ, continuous Scan, Rate: 3 deg./min. The accuracy of peak positions is defined as +/−0.2 degrees due to experimental differences like instrumentations, sample preparations etc. Hygroscopicity Table and Stability Measurements of Form G and J

WATER CONTENT ([1]; 40% relative humidity) [%] | WATER CONTENT ([1]; 60% relative humidity) [%] | WATER CONTENT ([1]; 80% relative humidity) [%] | WATER CONTENT ([1]; 100% relative humidity) [%] | INITIAL water content [1] | crystalline stability (conversion to another polymorph upon storage) [2] | CRYSTAL FORM [2] | SMILES
<0.1 | <0.1 | 0.2 | 5.5 | INITIAL water content: <0.1% | stable polymorphic form | B >> J | O=C(O[C@@H]1C[C@@H]2C[C@H]3C[C@H](C1)N2CC3=O)c1c[nH]c2ccccc12 [Form J, Dolasetron base]
<0.1 | <0.1 | <0.1 | 4.1 | INITIAL water content: 0.1% | stable polymorphic form | B >> G | O=C(O[C@@H]1C[C@@H]2C[C@H]3C[C@H](C1)N2CC3=O)c1c[nH]c2ccccc12 [Form G, Dolasetron base]
